According to ChEMBL document CHEMBL5614443, “Hybrids of 3-Hydroxypyridin-4(1H)-ones and Long-Chain 4-Aminoquinolines as Potent Biofilm Inhibitors of Pseudomonas aeruginosa Potentiate Tobramycin and Polymyxin B Activity” (J Med Chem, 2024):
Active and inactive are the calls of the source. No cut-off for these calls is given here.

Assays:
[1] = system: Pseudomonas aeruginosa; experiment: Synergistic antibacterial activity against Pseudomonas aeruginosa PAO1 assessed as reduction in cell viability at 10 to 50 uM incubated for 24 hrs in the presence of 1/4 MIC of tobramycin by LB agar plate method; assay type: functional, organism-based; settings: dose 10-50 µM
[2] = system: Pseudomonas aeruginosa; experiment: Antivirulence activity in Pseudomonas aeruginosa clinical isolate 0815 assessed as reduction in pyocyanin production at 10 uM incubated for 24 hrs by absorbance based analysis; assay type: functional, organism-based
[3] = Inhibition of quorum sensing system in wildtype Pseudomonas aeruginosa PAO1 assessed as inhibition of elastase production incubated for 24 hrs by elastin-congo red dye based absorbance assay
[4] = system: Pseudomonas aeruginosa; experiment: Antibacterial activity against Pseudomonas aeruginosa 27853 assessed as inhibition of bacterial growth incubated for 24 hrs by CLSI protocol based method; assay type: functional, organism-based
[5] = system: Pseudomonas aeruginosa; experiment: Antibacterial activity against Pseudomonas aeruginosa PAO1 infected in Caenorhabditis elegans assessed as worm survival rate at 10 uM measured after 96 hrs in presence of polymyxin B at 1/2 MIC by bright field microscopic analysis relative to control; assay type: functional
[6] = system: Pseudomonas aeruginosa; experiment: Synergistic antibacterial activity against Pseudomonas aeruginosa PAO1 assessed as reduction in cell viability at 10 to 50 uM incubated for 24 hrs in the presence of 1/8 MIC of polymyxin B by LB agar plate method; assay type: functional, organism-based; settings: dose 10-50 µM
[7] = system: Pseudomonas aeruginosa; experiment: Antibacterial activity against Pseudomonas aeruginosa clinical isolate 0815 assessed as inhibition of bacterial growth incubated for 24 hrs by CLSI protocol based method; assay type: functional, organism-based
[8] = system: Pseudomonas aeruginosa; experiment: Synergistic antibacterial activity against Pseudomonas aeruginosa clinical isolate 0815 assessed as reduction in bacterial viability at 10 to 50 uM incubated for 24 hrs in presence of 1/2 MIC of polymyxin B by LB agar plate method; assay type: functional, organism-based; settings: dose 10-50 µM
[9] = system: Pseudomonas aeruginosa; experiment: Synergistic antibacterial activity against Pseudomonas aeruginosa clinical isolate 1121 assessed as reduction in bacterial viability at 10 to 50 uM incubated for 24 hrs in presence of 1/4 MIC of polymyxin B by LB agar plate method; assay type: functional, organism-based; settings: dose 10-50 µM
[10] = system: Pseudomonas aeruginosa; experiment: Antivirulence activity in Pseudomonas aeruginosa clinical isolate 1167 assessed as reduction in pyocyanin production at 10 uM incubated for 24 hrs by absorbance based analysis; assay type: functional, organism-based
[11] = Cytotoxicity against African green monkey Vero cells assessed as reduction in cell viability incubated for 24 hrs by MTT assay; assay type: toxicity, cell-based; settings: chlorocebus sabaeus
[12] = Metal chelating activity assessed as Fe3+ chelation by measuring iron chelation constant by fluorescence competition assay
[13] = system: Pseudomonas aeruginosa; experiment: Synergistic antibacterial activity against Pseudomonas aeruginosa PAO1 assessed as reduction in cell viability at 10 to 50 uM incubated for 24 hrs in the presence of 1/4 MIC of polymyxin B by LB agar plate method; assay type: functional, organism-based; settings: dose 10-50 µM
[14] = system: Pseudomonas aeruginosa; experiment: Antibacterial activity against Pseudomonas aeruginosa clinical isolate 0617 assessed as inhibition of bacterial growth incubated for 24 hrs by CLSI protocol based method; assay type: functional, organism-based
[15] = system: Pseudomonas aeruginosa; experiment: Antibacterial activity against Pseudomonas aeruginosa clinical isolate 1074 assessed as inhibition of bacterial growth incubated for 24 hrs by CLSI protocol based method; assay type: functional, organism-based
[16] = system: Pseudomonas aeruginosa; experiment: Antivirulence activity in Pseudomonas aeruginosa clinical isolate 0815 assessed as reduction in rhamnolipid production at 10 uM incubated for 24 hrs by absorbance based microtiter plate reader analysis; assay type: functional, organism-based
[17] = Hemolytic activity in rabbit erythrocytes assessed as hemolysis rate at 200 uM incubated for 2 hrs by microplate reader analysis (reference value: 100 %); assay type: toxicity, cell-based, Oryctolagus cuniculus, Erythrocyte; settings: read-out: Activity
[18] = system: Pseudomonas aeruginosa; experiment: Antibiofilm activity against Pseudomonas aeruginosa harboring pvds-deficient mutant assessed as inhibition of biofilm formation at 0.1 to 20 uM incubated for 24 hrs by crystal violet staining based analysis; assay type: functional, organism-based; settings: dose 0.1-20 µM
[19] = system: Pseudomonas aeruginosa; experiment: Synergistic antibacterial activity against Pseudomonas aeruginosa clinical isolate 1121 assessed as fold reduction in bacterial viability at 50 uM incubated for 24 hrs in presence of 1/2 MIC of polymyxin B by LB agar plate method relative to polymyxin B alone; assay type: functional
[20] = system: Pseudomonas aeruginosa; experiment: Antibacterial activity against Pseudomonas aeruginosa clinical isolate 1167 assessed as inhibition of bacterial growth incubated for 24 hrs by CLSI protocol based method; assay type: functional, organism-based
[21] = system: Pseudomonas aeruginosa; experiment: Antivirulence activity in Pseudomonas aeruginosa clinical isolate 1121 assessed as reduction in elastase production at 10 uM incubated for 24 hrs by elastin-congo red dye based absorbance assay; assay type: functional, organism-based
[22] = system: Pseudomonas aeruginosa; experiment: Antibacterial activity against Pseudomonas aeruginosa PAO1 infected in Caenorhabditis elegans assessed as worm survival rate at 10 uM measured after 72 hrs in presence of tobramycin at 1/2 MIC by bright field microscopic analysis relative to control; assay type: functional
[23] = system: Pseudomonas aeruginosa; experiment: Antivirulence activity in Pseudomonas aeruginosa clinical isolate 1167 assessed as reduction in rhamnolipid production at 10 uM incubated for 24 hrs by absorbance based microtiter plate reader analysis; assay type: functional, organism-based
[24] = system: Pseudomonas aeruginosa; experiment: Antibacterial activity against Pseudomonas aeruginosa PAO1 infected in Caenorhabditis elegans assessed as worm survival at 10 uM by bright-field microscopic analysis (reference value: 24 hrs); assay type: functional
[25] = Toxicity in Caenorhabditis elegans assessed as effect on survival upto 200 uM incubated for 72 hrs by bright-field microscopic analysis
[26] = system: Pseudomonas aeruginosa; experiment: Synergistic antibacterial activity against Pseudomonas aeruginosa clinical isolate 0815 assessed as reduction in bacterial viability at 10 to 50 uM incubated for 24 hrs in presence of 1/4 MIC of tobramycin by LB agar plate method; assay type: functional, organism-based; settings: dose 10-50 µM
[27] = system: Pseudomonas aeruginosa; experiment: Antibacterial activity against Pseudomonas aeruginosa clinical isolate 1121 assessed as inhibition of bacterial growth incubated for 24 hrs by CLSI protocol based method; assay type: functional, organism-based
[28] = Inhibition of quorum sensing system in Pseudomonas aeruginosa PAO1 transfected with mini-ctx-lasB-lacZ reporter gene assessed as decrease in beta-galactosidase activity incubated for 6 hrs by Miller assay; settings: dose 1.25-20 µM
[29] = system: Pseudomonas aeruginosa; experiment: Synergistic antibacterial activity against Pseudomonas aeruginosa clinical isolate 1167 assessed as reduction in bacterial viability at 10 to 50 uM incubated for 24 hrs in presence of 1/8 MIC of polymyxin B by LB agar plate method; assay type: functional, organism-based; settings: dose 10-50 µM
[30] = system: Pseudomonas aeruginosa; experiment: Synergistic antibacterial activity against Pseudomonas aeruginosa clinical isolate 1167 assessed as reduction in bacterial viability at 10 to 50 uM incubated for 24 hrs in presence of 1/4 MIC of tobramycin by LB agar plate method; assay type: functional, organism-based; settings: dose 10-50 µM
[31] = system: Pseudomonas aeruginosa; experiment: Induction of Fe3+ chelating activity in Pseudomonas aeruginosa PAO1 assessed as increase in pyoverdine production by measuring fold change at 50 uM incubated for 24 hrs by fluorescence microplate reader
[32] = system: Pseudomonas aeruginosa; experiment: Synergistic antibacterial activity against Pseudomonas aeruginosa clinical isolate 1167 assessed as reduction in bacterial viability at 10 to 50 uM incubated for 24 hrs in presence of 1/2 MIC of polymyxin B by LB agar plate method; assay type: functional, organism-based; settings: dose 10-50 µM
[33] = system: Pseudomonas aeruginosa; experiment: Synergistic antibacterial activity against Pseudomonas aeruginosa clinical isolate 1121 assessed as reduction in bacterial viability at 10 to 50 uM incubated for 24 hrs in presence of 1/2 MIC of tobramycin by LB agar plate method; assay type: functional, organism-based; settings: dose 10-50 µM
[34] = system: Pseudomonas aeruginosa; experiment: Induction of Fe3+ chelating activity in Pseudomonas aeruginosa PAO1 assessed as increase in pyoverdine production by measuring fold change at 20 uM incubated for 24 hrs by fluorescence microplate reader
[35] = system: Pseudomonas aeruginosa; experiment: Synergistic antibacterial activity against Pseudomonas aeruginosa PAO1 assessed as fold reduction in bacterial survival rate incubated for 24 hrs in presence of ciprofloxacin by LB agar plate method; assay type: functional

Question: For Cc1cc(=O)c(O)c(C(=O)NCCCCCCCCNc2ccnc3cc(Cl)ccc23)n1C.Cl, which Activity [1] is on record?
Answer: Its Activity is “Active”.

Question: And the Activity [2]?
Answer: The Activity was “Active”.

Question: What about the IC50 [3] of the same compound?
Answer: The IC50 was 16.7 µM.

Question: And the Activity [4]?
Answer: Its Activity is “inactive”.

Question: What about the survival at 10 µM [5] of the same compound?
Answer: The survival at 10 µM was 32.1%.

Question: What about the Activity [6] of the same compound?
Answer: Its Activity is “Active”.

Question: What about the Activity [7] of the same compound?
Answer: The Activity was “inactive”.

Question: What about the Activity [8] of the same compound?
Answer: Its Activity is “Active”.

Question: And the Activity [9]?
Answer: Its Activity is “Active”.

Question: What about the Activity [10] of the same compound?
Answer: The Activity was “Active”.

Question: What about the CC50 at 24 h [11] of the same compound?
Answer: Its CC50 at 24 h is over 800 µM.

Question: And the pFe3+ [12]?
Answer: The pFe3+ was 20.6.

Question: What about the Activity [13] of the same compound?
Answer: The Activity was “Active”.

Question: And the Activity [14]?
Answer: Its Activity is “inactive”.

Question: And the Activity [15]?
Answer: The Activity was “inactive”.

Question: And the Activity [16]?
Answer: Its Activity is “Active”.

Question: What about the hemolysis at 2 h, 200 µM [17] of the same compound?
Answer: Its hemolysis at 2 h, 200 µM is under 1.5%.

Question: And the Activity [18]?
Answer: Its Activity is “Active”.

Question: What about the “fold change (FC)” value [19] of the same compound?
Answer: Its value is 15.

Question: What about the Activity [20] of the same compound?
Answer: The Activity was “inactive”.

Question: And the Activity [21]?
Answer: The Activity was “Active”.

Question: What about the survival at 10 µM [22] of the same compound?
Answer: The survival at 10 µM was 28.4%.

Question: And the Activity [23]?
Answer: Its Activity is “Active”.

Question: And the Survival [24]?
Answer: The Survival was 32 h.

Question: What about the Activity [25] of the same compound?
Answer: Its Activity is “Non-Toxic”.

Question: What about the Activity [26] of the same compound?
Answer: The Activity was “Active”.

Question: What about the Activity [27] of the same compound?
Answer: Its Activity is “inactive”.

Question: And the inhibition [28]?
Answer: Its inhibition is “Dose-Dependent Effect”.

Question: And the Activity [29]?
Answer: The Activity was “Active”.

Question: And the Activity [30]?
Answer: The Activity was “Active”.

Question: And the fold change (FC) [31]?
Answer: Its fold change (FC) is 16.

Question: And the Activity [32]?
Answer: The Activity was “Active”.

Question: What about the Activity [33] of the same compound?
Answer: The Activity was “Active”.

Question: What about the fold change (FC) [34] of the same compound?
Answer: The fold change (FC) was 10.

Question: What about the “fold change (FC)” value [35] of the same compound?
Answer: The value was under 10.
